13 compounds from patent US20240279214A1, “ALPHA4 BETA7 INEGRIN ANTAGONISTS AND USES THEREOF” (XinThera, Inc., priority 2022, published 2024) can be followed below.

Molecules are shown by their SMILES.

One may read the EC50 as the concentration at which the effect is half-maximal.

The target of this test is T1, a4b7 integrin interaction with MadCAM-1 (Homo sapiens, UniProt P13612+P26010).
T1 construct: capture of a4b7 integrin expressing cells, RPMI8866; endogenous in cells; host or cells: RPMI8866
T1 sequence (P13612 34-1032): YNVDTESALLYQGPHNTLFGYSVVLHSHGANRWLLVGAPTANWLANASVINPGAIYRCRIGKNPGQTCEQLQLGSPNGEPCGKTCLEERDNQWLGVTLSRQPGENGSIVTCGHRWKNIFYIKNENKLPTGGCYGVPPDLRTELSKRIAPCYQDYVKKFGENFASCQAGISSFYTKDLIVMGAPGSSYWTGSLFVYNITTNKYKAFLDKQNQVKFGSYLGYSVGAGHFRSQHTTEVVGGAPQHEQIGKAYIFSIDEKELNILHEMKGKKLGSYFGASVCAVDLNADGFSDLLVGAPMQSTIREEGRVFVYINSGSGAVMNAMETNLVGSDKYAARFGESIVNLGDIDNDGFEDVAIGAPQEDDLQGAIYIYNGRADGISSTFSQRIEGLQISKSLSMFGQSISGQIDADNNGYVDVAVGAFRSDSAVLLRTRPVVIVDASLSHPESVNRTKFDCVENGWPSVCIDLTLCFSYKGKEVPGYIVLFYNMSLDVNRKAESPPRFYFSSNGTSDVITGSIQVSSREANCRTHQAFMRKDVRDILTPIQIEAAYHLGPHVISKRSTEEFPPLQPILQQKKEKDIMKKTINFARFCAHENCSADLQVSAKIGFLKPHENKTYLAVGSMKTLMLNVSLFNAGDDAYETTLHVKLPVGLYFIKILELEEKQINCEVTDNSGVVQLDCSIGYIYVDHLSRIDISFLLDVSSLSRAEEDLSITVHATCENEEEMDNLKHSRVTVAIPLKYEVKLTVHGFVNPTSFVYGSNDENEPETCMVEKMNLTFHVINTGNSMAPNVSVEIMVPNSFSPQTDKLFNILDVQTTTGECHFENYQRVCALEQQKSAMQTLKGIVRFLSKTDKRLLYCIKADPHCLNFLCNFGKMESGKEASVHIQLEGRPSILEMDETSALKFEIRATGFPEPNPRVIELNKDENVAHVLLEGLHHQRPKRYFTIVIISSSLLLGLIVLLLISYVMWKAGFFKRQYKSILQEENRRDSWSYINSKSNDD
T1 sequence (P26010 20-798): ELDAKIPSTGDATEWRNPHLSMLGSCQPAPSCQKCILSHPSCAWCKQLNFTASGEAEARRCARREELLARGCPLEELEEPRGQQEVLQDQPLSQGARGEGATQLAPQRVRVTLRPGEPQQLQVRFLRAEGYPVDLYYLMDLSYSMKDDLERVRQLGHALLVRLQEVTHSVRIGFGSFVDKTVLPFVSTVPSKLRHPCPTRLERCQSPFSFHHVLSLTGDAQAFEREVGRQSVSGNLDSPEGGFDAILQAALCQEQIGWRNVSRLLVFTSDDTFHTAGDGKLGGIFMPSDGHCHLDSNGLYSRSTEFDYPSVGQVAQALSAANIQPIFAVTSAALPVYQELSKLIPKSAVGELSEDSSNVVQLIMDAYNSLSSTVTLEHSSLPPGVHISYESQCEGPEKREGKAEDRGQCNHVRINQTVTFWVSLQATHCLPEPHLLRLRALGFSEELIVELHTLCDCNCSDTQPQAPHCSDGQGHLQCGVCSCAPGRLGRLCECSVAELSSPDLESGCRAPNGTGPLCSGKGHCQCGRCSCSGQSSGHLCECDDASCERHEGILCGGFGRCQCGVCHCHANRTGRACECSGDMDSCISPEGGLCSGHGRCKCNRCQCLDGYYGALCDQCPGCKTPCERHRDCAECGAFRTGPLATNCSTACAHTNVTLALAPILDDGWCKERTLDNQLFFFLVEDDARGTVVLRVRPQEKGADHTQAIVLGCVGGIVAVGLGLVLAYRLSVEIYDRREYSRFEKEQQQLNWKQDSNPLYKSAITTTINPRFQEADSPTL
Description: a4b7 Cell Capture Assay (RPMI8866 cells on MAdCAM-1 Fc coated plates). Format: cell-based. Conditions: 50% human serum, 1 mM MgCl2, 1 hour incubation, CellTiter-Glo luminescence, read-out: a4B7 cell capture assay RMPI8866-MadCAM EC50. The method in brief:
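RPMI8866 cells (1.0×10^6 cells/mL) in 1 mM MgCl2, 25 mM HEPES, 50% human serum were added to plates coated with human MAdCAM-1–IgG1 Fc (1.0 μg/mL) and exposed to compound (9-point, 0.08–1000 nM, 0.1% DMSO) for 1 h at 37 °C. Bound cells were read by CellTiter-Glo luminescence. IC50 came from 4-parameter fit of normalized % inhibition.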
For the compound `Cc1cc2cc(c1F)[C@H](CC(=O)O)NC(=O)[C@@H](n1cc(CCN3CC(F)C3)c(C(F)(F)F)cc1=O)c1cc(cc(C(F)(F)F)c1)Oc1cccc(C)c1-2` (relative stereo) [Example 22, [(14R*,17S)-19-fluoro-14-{5-[2-(3-fluoroazetidin-1-yl)ethyl]-2-oxo-4-(trifluoromethyl)pyridin-1-yl}-3,20-dimethyl-15-oxo-11-(trifluoromethyl)-8-oxa-16-azatetracyclo[16.3.1.1^{9,13}.0^{2,7}]tricosa-1(22),2(7),3,5,9,11,13(23),18,20-nonaen-17-yl]acetic acid], the EC50 is 9.9 nM.

`Cc1cc2cc(c1F)[C@H](CC(=O)O)NC(=O)[C@@H](n1cc(CCN3CC(F)C3)c(C(F)(F)F)cc1=O)c1cc(ccc1F)Oc1cc(Cl)cc(C)c1-2` (relative stereo) [Example 55, [(14R*,17S)-5-chloro-12,19-difluoro-14-{5-[2-(3-fluoroazetidin-1-yl)ethyl]-2-oxo-4-(trifluoromethyl)pyridin-1-yl}-3,20-dimethyl-15-oxo-8-oxa-16-azatetracyclo[16.3.1.1^{9,13}.0^{2,7}]tricosa-1(22),2(7),3,5,9,11,13(23),18,20-nonaen-17-yl]acetic acid]: the EC50 came to 4 nM.

In the case of `Cc1cc2cc(c1F)[C@H](CC(=O)O)NC(=O)[C@@H](n1cc(CCN3CC(F)C3)c(C(F)(F)F)cc1=O)c1cc(ccc1F)Oc1cc(C3COC3)cc(C)c1-2` (single isomer, unassigned) [Example 57], the EC50 was 2.6 nM.

Consider `O=C(O)C[C@@H]1NC(=O)[C@@H](n2cc(CCN3CC(F)C3)c(C(F)(F)F)cc2=O)c2cccc(c2)Oc2cccc(C(F)(F)F)c2-c2cc1c(F)c(C(F)(F)F)c2` (relative stereo) [Example 13, [(14R*,17S)-19-fluoro-14-{5-[2-(3-fluoroazetidin-1-yl)ethyl]-2-oxo-4-(trifluoromethyl)pyridin-1-yl}-15-oxo-3,20-bis(trifluoromethyl)-8-oxa-16-azatetracyclo[16.3.1.1^{9,13}.0^{2,7}]tricosa-1(22),2(7),3,5,9,11,13(23),18,20-nonaen-17-yl]acetic acid], for which the concentration for a half-maximal effect (EC50) was greater than 1000 nM.

On to `Cc1cc(C)c2c(c1)Oc1cccc(c1)[C@H](n1cc(CCN3CC(F)C3)c(C(F)(F)F)cc1=O)C(=O)N[C@@H](CC(=O)O)c1cc-2cc(C(F)(F)F)c1F` (relative stereo) [Example 4, [(14R*,17S)-19-fluoro-14-{5-[2-(3-fluoroazetidin-1-yl)ethyl]-2-oxo-4-(trifluoromethyl)pyridin-1-yl}-3,5-dimethyl-15-oxo-20-(trifluoromethyl)-8-oxa-16-azatetracyclo[16.3.1.1^{9,13}.0^{2,7}]tricosa-1(21),2(7),3,5,9,11,13(23),18(22),19-nonaen-17-yl]acetic acid], for which the EC50 was determined as 440 nM.

In the case of `Cc1cccc2c1-c1cc(F)c(F)c(c1)[C@H](CC(=O)O)NC(=O)[C@@H](n1cc(CCN3CC(F)C3)c(C(F)(F)F)cc1=O)c1cc(ccc1F)O2` (relative stereo) [Example 31, [(14R*,17S)-12,19,20-trifluoro-14-{5-[2-(3-fluoroazetidin-1-yl)ethyl]-2-oxo-4-(trifluoromethyl)pyridin-1-yl}-3-methyl-15-oxo-8-oxa-16-azatetracyclo[16.3.1.1^{9,13}.0^{2,7}]tricosa-1(22),2(7),3,5,9,11,13(23),18,20-nonaen-17-yl]acetic acid], the EC50 was determined as 1.9 nM.

In the case of `Cc1cc2cc(c1F)[C@H](CC(=O)O)NC(=O)[C@@H](n1cc(CCN3CC(F)C3)c(C(F)(F)F)cc1=O)c1cc(ccc1F)Oc1ccc(F)cc1-2` (single isomer, unassigned) [Example 52], the EC50 was found to be 180 nM.

For `Cc1ccc2cc1[C@H](n1cc(CCN3CC(F)C3)c(C(F)(F)F)cc1=O)C(=O)N[C@@H](CC(=O)O)c1cc(cc(C)c1F)-c1c(C)cccc1O2` (single isomer, unassigned) [Example 71], the EC50 is 3.5 nM.

Turning to `Cc1cc2cc(c1F)[C@H](CC(=O)O)NC(=O)[C@@H](n1cc(CCN3CC(F)C3)c(C(F)(F)F)cc1=O)c1cc(ccc1F)Oc1nn(C)c(C)c1-2` (relative stereo) [Example 40, rel-[(13S,16S)-11,18-difluoro-13-{5-[2-(3-fluoroazetidin-1-yl)ethyl]-2-oxo-4-(trifluoromethyl)pyridin-1-yl}-3,4,19-trimethyl-14-oxo-7-oxa-4,5,15-triazatetracyclo[15.3.1.1^{8,12}.0^{2,6}]docosa-1(21),2,5,8,10,12(22),17,19-octaen-16-yl]acetic acid], the EC50 amounted to 42 nM.

Consider `Cc1cc2cc(c1F)[C@H](CC(=O)O)NC(=O)[C@@H](n1cc(CCN3CC(F)C3)c(C(F)(F)F)cc1=O)c1cc(Cl)cc(c1)Oc1ccc(F)c(C)c1-2` (relative stereo) [Example 34, [(14R*,17S)-11-chloro-4,19-difluoro-14-{5-[2-(3-fluoroazetidin-1-yl)ethyl]-2-oxo-4-(trifluoromethyl)pyridin-1-yl}-3,20-dimethyl-15-oxo-8-oxa-16-azatetracyclo[16.3.1.1^{9,13}.0^{2,7}]tricosa-1(22),2(7),3,5,9,11,13(23),18,20-nonaen-17-yl]acetic acid], for which the EC50 is 23 nM.

Take `Cc1cc2cc(c1F)[C@H](CC(=O)O)NC(=O)[C@@H](n1cc(CCCN(C)C)c(C(F)(F)F)cc1=O)c1cc(ccc1F)Oc1cccc(C)c1-2` (relative stereo) [Example 20, [(14R*,17S)-14-{5-[3-(dimethylamino)propyl]-2-oxo-4-(trifluoromethyl)pyridin-1-yl}-12,19-difluoro-3,20-dimethyl-15-oxo-8-oxa-16-azatetracyclo[16.3.1.1^{9,13}.0^{2,7}]tricosa-1(22),2(7),3,5,9,11,13(23),18,20-nonaen-17-yl]acetic acid]: the EC50 worked out at 0.08 nM.

Turning to `Cc1cccc2c1-c1cc(c(F)c(C(F)(F)F)c1)[C@H](CC(=O)O)NC(=O)[C@@H](n1cc(CCN3CC(F)C3)c(C(F)(F)F)cc1=O)c1cc(ccc1F)CO2` (relative stereo) [Example 35, [(15R*,18S)-13,20-difluoro-15-{5-[2-(3-fluoroazetidin-1-yl)ethyl]-2-oxo-4-(trifluoromethyl)pyridin-1-yl}-3-methyl-16-oxo-21-(trifluoromethyl)-8-oxa-17-azatetracyclo[17.3.1.1^{10,14}.0^{2,7}]tetracosa-1(23),2(7),3,5,10,12,14(24),19,21-nonaen-18-yl]acetic acid], the EC50 stood at 7.7 nM.

Turning to `Cc1cccc2c1-c1cc(c(F)c(C(F)(F)F)c1)[C@H](CC(=O)O)NC(=O)[C@@H](n1c(=O)c3ccncc3n(C)c1=O)c1cc(ccc1F)CO2` (single isomer, unassigned) [Example 67], the EC50 was found to be 190 nM.
